Source: patent publication US6492325B1, “Use of α1β1 integrin receptor inhibitors and TGF-β1 inhibitors in the treatment of kidney disease” (Boys Town National Research Hospital, priority 1998, dated 2002)

Tests used:
[1] = system: double knockout (DKO) mice; assay: TGF-β1 inhibitors in double knockout mice, transmission electron microscopy of GBM ultrastructure; format: in vivo, mouse; details: treated twice weekly from 4 weeks, kidneys taken at 10 weeks
Procedure: (§1) A. Transmission Electron Microscopy: Fresh external renal cortex was minced in 4% paraformaldehyde, allowed to fix for 2 hours, and stored at 5° C. in PBS (pH 7.4). The tissue was washed extensively (5 times for 10 minutes each at 4° C.) with 0.1M Sorenson's buffer (Sorenson's buffer was made by combining 100 ml of 200 mM monobasic sodium phosphate and 400 ml of 200 mM dibasic sodium phosphate with 500 ml of water, and adjusted to pH 7.4), and postfixed in 1% osmium tetroxide in Sorenson's buffer for 1 hour. The tissue was then dehydrated in graded ethanol (70%, then 80%, then 90%, then 100% for ten minutes each), and finally in propylene oxide and embedded in Poly/Bed 812 epoxy resin (Polysciences, Inc., Warrington, Pa.) following the procedures described by the manufacturer. In short, 42 ml of polybed 812 was mixed with 26 ml of dodecylsuccinic anhydride (DDSA, Polysciences, Inc.) and 24 ml of nadic methyl anhydride (Polysciences Inc.). […]
(§2) Mice (DKO mice are null for both the collagen α3(IV) and integrin α1 genes) were injected with TGF-β1 inhibitors FK506 (2 μg/gram body weight, twice weekly, intraperitoneal injections) or Biogen's TGF-β1 soluble receptor (25 μg per injection, twice weekly, intravenous injections) starting at four weeks of age. The kidneys were taken at 10 weeks of age and analyzed. […]

129 Sv/J Alport mouse [2] = assay: TGF-β1 inhibitors in 129 Sv/J Alport mouse, transmission electron microscopy of GBM ultrastructure; format: in vivo; details: 7 week old Alport mice, treated twice weekly from 3 weeks of age
Procedure: as §1, with “Inc.). One and a half mls of 2,4,6 tri(dimethly aminomethyl) phenol was added as a catalyst, and the activated resin frozen in 10 ml aliquots until needed for embedding specimen. Glomeruli were identified in 1 μm (micron) sections stained with toluidine blue, and thin sections were cut at 70 nm (nanometer) thickness using a Reichert Jung Ultracut E ultramicrotome (Cambridge Instrument Co, Vienna, Austria).” for “Inc.).”

129 Sv/J Alport mouse [3] = assay: TGF-β1 inhibitors in 129 Sv/J Alport mouse, scanning electron microscopy of glomeruli; format: in vivo; details: 7 week old Alport mice, treated twice weekly from 3 weeks of age
From the text: B. Scanning Electron Microscopy: Small pieces (approximately 2 mm cubes) of kidney cortex were fixed in 3% phosphate buffered glutaraldehyde, then postfixed in 1% phosphate buffered osmium tetroxide. Samples were then dehydrated in graded ethanols, and critical point dried in carbon dioxide. The cubes were then cracked in pieces by stressing them with the edge of a razor blade, and mounted with glue onto stubs with the cracked surface facing upward. The surface was sputter coated with gold/palladium using well known procedures and visualized with a scanning electron microscope.
(§3) The experimental protocol was to inject with either FK506 (2 μg/g body weight, injected intraperitoneally, Fujisawa Pharmaceutical Co., Ltd., Osaka, Japan), or a soluble TGF-B1 receptor (25 μg/injection, intravenously through the tail vein, Biogen Inc., Cambridge, Mass.) twice weekly starting at 3 weeks of age. Kidneys were harvested at 7 weeks of age and subjected to the described analyses.
Some of the kidney specimen was processed for scanning electron microscopy. Glomeruli were exposed by freeze fracture of renal cortex, which removes the Bowman's capsule, exposing the outer layer of podocytes as they cover the capillary loops of the glomerulus. […]

double knockout mice [4] = assay: Immunoperoxidase staining for collagen type I and fibronectin in tubulointerstitium of double knockout mice; format: in vivo, mouse; details: 10 week old double knockout mice
From the text: E. Immunoperoxidase Detection: The immunoperoxidase detection method was used in immunostaining for TGF-β1 in glomeruli as well as fibronectin and collagen type I in tubunointerstitium. The collagen type I antibody is rabbit anti-mouse, and was purchased from Biogenesis, Inc. (Sandown, N.H.). The antisera was used at a 1:100 dilution for immunoperoxidase staining. The fibronectin antibody used was the same as for immunfluorescence staining (a rabbit anti-human fibronectin antisera from Sigma Chemical Company, St. Louis, Mo.), and was used at a 1:100 dilution. […]
as §2
The role of TGF-β1 in upregulation of matrix proteins and in renal fibrosis has been well established (Yang et al., J. Am. Soc. Nephrol., 5:1610-1617, 1995; Border and Ruoslahti, J. Clin. Invest., 90:1-7, 1992). […] Animals injected with TGF-β1 inhibitors were analyzed using three markers for interstitial fibrosis and compared directly with 10 week old double knockout animals that were not treated with inhibitors. […]

129 Sv/J Alport mouse [5] = assay: Dual immunofluorescence staining for laminin α2 chain in glomeruli of treated Alport mice; format: in vivo; details: 7 week old 129 Sv/J Alport mouse
Procedure: as §3
In dual fluorescence analysis, fresh renal cortex was embedded in Tissue Tek aqueous embedding compound, snap frozen, and cut at 4 microns on a cryostat. Slides were postfixed in cold (−20° C.) 100% acetone for 10 minutes, and then air dried overnight. Tissue was rehydrated by three washes in PBS for 10 minutes each. The primary antibodies were diluted together in 7% non-fat dry milk (BioRad). An anti-entactin antibody (Chemicon Inc.) was used as a known marker for glomerular basement membrane at a dilution of 1:200. The laminin α2 chain-specific antibody was a gift from Dr. Peter Yurchenco (Robert Wood Johnson Medical School, Piscataway, N.J.). The specificity of this antibody for the laminin α2 chain was illustrated in Cheng et al., J. Biol. Chem., 272:31525-31532, 1997. The antibody was used at a concentration of 1:10. Primary antibodies were allowed to react overnight at 4° C. in a humidified dish. […]

double knockout mice [6] = assay: Northern blot of kidney RNAs (matrix molecules, Timp) in double knockout mice treated with TGF-β1 inhibitors; format: in vivo, mouse; details: 10 week old double knockout mice; untreated show nine-fold reduction relative to control
Procedure: A. Northern Blot Analysis: Kidneys were removed and snap frozen in liquid nitrogen and ground to a powder in liquid nitrogen using a mortar and pestle. The powder was solubilized in TRIZOL reagent (GibCo/BRL, Grand Island, N.Y.) using 5 ml of reagent per kidney. Total cellular RNA was extracted according to the manufacturer's instructions. Twenty micrograms (20 μg) of RNA was fractionated on a 1.0% agarose/formaldehyde/MOPS (3-(N-morpholino)propanesulfonic acid) gel by electrophoresis at 80V for 4 hours. Gels were soaked in water for 45 minutes, and transferred to Hybond N (uncharged nylon, New England Nuclear, Inc., Boston, Mass.) by capillary blot overnight using 750 mM ammonium acetate (in water) as a transfer buffer. The RNA was UV crosslinked to the blot using a Stratalinker (Stratagene, Inc., LaJolla, Calif.). […] The quality of the RNA preparations and the consistency of loading was assessed by staining gels with ethidium bromide and scanning the 18S and 28S ribosomal RNA bands using a Gel Imager 2000 digital imaging system instrument and software package (Applied Imaging, Santa Clara, Calif.). […] Quantitative densitometric scanning confirmed no more than a 10% variance in sample loading. […] Quantitative differences in expression were assessed by phosphorimage analysis using a BioRad GS-525 phosphorimager (Bio Rad, Inc., Hercules, Calif.), and subtracted for background hybridization. […]

[7] = system: double knockout (DKO) mice; assay: TGF-β1 inhibitors in double knockout mice, urinary albumin (proteinuria) by gel electrophoresis; format: in vivo, mouse
Procedure: Urine samples were collected at weekly intervals and 0.5 μl fractionated by electrophoresis through 10% denaturing acrylamide gels. The protein in the gels was stained with coomassie blue and photographed. Bovine serum albumin was used as a molecular weight standard.
Mice (DKO mice are null for both the collagen α3(IV) and integrin α1 genes) were injected with TGF-β1 inhibitors FK506 (2 μg/gram body weight, twice weekly, intraperitoneal injections) or Biogen's TGF-β1 soluble receptor (25 μg per injection, twice weekly, intravenous injections) starting at four weeks of age. The kidneys were taken at 10 weeks of age and analyzed. The 10 week time point was chosen since, in the double knockouts, the disease typically progresses to the point where significant irregular thickening of the GBM is observed, and the animals are beginning to progress towards end stage renal failure. Thus, if the TGF-β1 inhibitors are to provide additional protective benefits, those benefits should be evident at this stage in GBM disease progression. […] A typical example of these differences is illustrated in FIG. 14. […]
Proteinuria was examined in these same mice collected weekly during the course of treatment. Samples (equivalent to approximately one half of one microliter) were analyzed by electrophoresis on polyacrylamide gels. […]

C=CC[C@@H]1/C=C(\C)C[C@H](C)C[C@H](OC)[C@H]2O[C@@](O)(C(=O)C(=O)N3CCCC[C@H]3C(=O)O[C@H](/C(C)=C/[C@@H]3CC[C@@H](O)[C@H](OC)C3)[C@H](C)[C@@H](O)CC1=O)[C@H](C)C[C@@H]2OC [FK506, tacrolimus]
Focal GBM thickening and foot process effacement (transmission electron microscopy) [1]: marked reduction of both focal GBM thickening and foot process effacement
GBM thickening (transmission electron microscopy) (129 Sv/J Alport mouse [2]): obvious lack of basement membrane thickening
Podocyte foot process architecture (transmission electron microscopy) (129 Sv/J Alport mouse [2]): significant degree of swelling in the foot processes
Surface of the glomerulus / podocyte foot processes (scanning electron microscopy) (129 Sv/J Alport mouse [3]): looks much the same as that in the untreated Alport mouse
Collagen type I accumulation in interstitium of renal cortex (double knockout mice [4]): relative absence of collagen type I accumulation
Accumulation of laminin α2 in the GBM (129 Sv/J Alport mouse [5]): does not prevent the accumulation of laminin α2
Timp-3 mRNA expression in kidney (double knockout mice [6]): reduction in Timp-3 expression is not observed
Performance of the glomerular filter (urinary albumin) ([7]; double knockout mice, relative to untreated double knockout mice, urine collected weekly): markedly improved
Urinary protein bands related to nephrotoxic effects ([7]; normal and DKO mice treated with FK506): diffuse group of bands evident at every timepoint
